Each structure is given as a SMILES string. Where a name gives a salt, the structure may show the parent alone.

The test system of one data set is yellow nutsedge. In words: Test Example 1: foliar treatment of pot-grown yellow nutsedge in greenhouse, herbicidal activity. It is filed as in vivo, yellow nutsedge (Cyperus esculentus). The settings on record: sprayed over plants grown 26 days, examined 10 days after application, index 0 to 10. The text has this:
The values, “7”, “8”, “9”, and “10” of the herbicidal effect mean a excellent herbicidal effect.
(§1) Plastic pots each having a diameter of 11 cm and a depth of 8 cm were filled with upland soil, and then buried tubers of yellow nutsedge. And test plants were given 26 days to grow in greenhouse.An emulsifiable concentrate of compound A which had been obtained by well mixing 5 parts of compound A, 6 parts of Sorpol 3005X (produced by Toho Chemical Industry, Co., Ltd.) and 89 parts of xylene, a formulated glyphosate product (trade name: Roundup; seller, Monsanto Japan Limited), and a mixture of the emulsifiable concentrate of compound A and the formulated glyphosate product were independently diluted in their prescribed amounts with water. Each dilution was uniformly sprayed over the plants with a small sprayer, and then corn was further seeded. After the application the test plants were grown in the greenhouse for further 10 days and then, herbicidal activity and phytotoxicity to corn were examined.

A further data set concerns corn. In words: Test Example 1: phytotoxicity to corn seeded after application. It is filed as in vivo. On the set-up: key: “no harm” means that the phytotoxicity was unrecognizable or almost unrecognized; “small” means that a slight degree of phytotoxicity was recognized; “medium” means that a medium degree of phytotoxicity was recognized; “large” means that a large degree of phytotoxicity was recognized. The settings on record: corn seeded after spraying, examined after 10 days. On the procedure: The phytotoxicity is evaluated like these, “no harm” means that the phytotoxicity was unrecognizable or almost unrecognized, “small” means that a slight degree of phytotoxicity was recognized, “medium” means that a medium degree of phytotoxicity was recognized, and “large” means that a large degree of phytotoxicity was recognized.
as §1

Take `O=C(O)CNCP(=O)(O)O` [Glyphosate isopropylamine salt, N-(phosphonomethyl)glycine]: the “Herbicidal activity Yellow nutsedge” value with yellow nutsedge (dosage 560 g/ha) turned out to be 1. Also, the “Phytotoxicity Corn” value in the data set on corn (dosage 560 g/ha) is reported as “no harm”.

`COC(=O)C(C)Oc1cc(-n2c(=O)cc(C(F)(F)F)n(C)c2=O)c(F)cc1Cl` (stereo not shown) [Compound A, methyl 2-[2-chloro-4-fluoro-5-{3-methyl-2,6-dioxo-4-(trifluoromethyl)-1,2,3,6-tetrahydropyrimidin-1-yl}phenoxy]propionate]: the “Herbicidal activity Yellow nutsedge” value with yellow nutsedge (dosage 120 g/ha) is 4. In addition, the “Phytotoxicity Corn” value in the data set on corn (dosage 120 g/ha) is reported as “no harm”.

Source of the values: patent US6576592B1, “Herbicide composition” (Sumitomo Chemical Company, Limited, priority 1999, dated 2003).
